# Results: article PMC7405012, “Detection of Chaetomium globosum, Ch. cochliodes and Ch. rectangulare during the Diversity Tracking of Mycotoxin-Producing Chaetomium-like Isolates Obtained in Buildings in Finland” (Toxins, 2020)
# Read-outs that look alike come from different tables or passages of the source.
# Experiments:
# Assay in all cases: Resistance to biocides: conidial germination
# [1] = tested on: Aspergillus westerdijkiae AW/KL; format: cell-based; details: strain AW/KL
# Method: (§1) The toxicity of biocides and chemicals towards the indoor Chaetomium-like isolates and the reference indoor strains of the genera Aspergillus, Paecilomyces, Penicillium and Trichoderma was assessed in parallel with the six parameters presented in the Supplementary Materials: (1) germ tube assay (Figure S3); (2) estimation of turbidity (Figure S4); (3) visual emission of fluorescence (excitation at 360 nm); (4) visual resporulation of conidia; (5) inhibition of glucose consumption; and (6) resazurin reduction. All assays were performed in malt extract broth (12 g L^−1 malt extract, 7.2 µmol mL^−1 glucose, pH 5.5; Scharlab, Barcelona, Spain) in 96-well microtiter plates as described for the ICP assay.
# (§2) The assays measuring inhibition of germination of conidia were done with spore suspensions of 1–2 × 10^6 fungal spores mL−^1. The tests were performed in malt extract broth (Oxoid, Hampshire United Kingdom) 12 g in 1 L, pH 5.5, glucose 7.1 mmol L^−1, and performed on microtiter plates as described by Bencsik et al. for the ICP assay. The germ tube germination is visualized in Figure S3, and the tests estimating turbidity and emission of fluorescence provoked by the germinated and metabolically active conidia and C. globosum ascospores are visualized in Figures S4 and S5. Examples of the tests estimating fluorescence emission, turbidity and re-sporulation of conidia and ascospores are compared in Figure S5. The difference of the endpoints measured with the different assays was between […]. The resazurin reduction assays (Figure S6) were performed as described for the ICP assay, except that the microtiter plates were visually inspected for the change of the blue/violet color of resazurin (indicating inhibition of germination of the exposed conidia) to the […] (indicating metabolic activity and germination of the exposed conidia).
# (§3) The formation of germ tubes was inspected by a phase-contrast microscope (Olympus CKX41, Tokyo, Japan; magnification 400×) and an image recording software (Cellsense® standard version 11.0.06, Olympus Soft Imaging Solutions GmbH, Münster, Germany, 2012) after 1 and 2 days of incubation at 28 °C. The EC50 corresponded to the inhibition of 50% (estimated as the concentration between EC0 and EC100) of the conidia compared to the ethanol control (the growth medium containing 1% of ethanol). The tests were run in triplicate and calibrated with triclosan (CAS: 3380-34-5; Sigma Chemical Co., St. Louis, MO, USA) giving a mean SD of ±<20%.
# [2] = tested on: Trichoderma longibrachiatum THG; format: cell-based; details: strain THG, indoor Trichoderma longibrachiatum
# Method: as §1, §2, §3
# [3] = tested on: Penicillium sp. 5/skk; format: cell-based; details: strain 5/skk, indoor Penicillium sp.
# Method: as §1, §2, §3
# [4] = tested on: Aspergillus versicolor Gas/226; format: cell-based; details: strain Gas/226, Aspergillus versicolor
# Method: as §1, §2, §3
# [5] = tested on: Aspergillus section Flavi 7D; format: cell-based; details: strain 7D, indoor Aspergillus section Flavi
# Method: as §1, §2, §3
# [6] = tested on: Paecilomyces sp. Pec1/skk; format: cell-based; details: strain Pec1/skk, indoor Paecilomyces sp.
# Method: as §1, §2, §3
# [7] = tested on: Aspergillus section Nigri Asp21; format: cell-based; details: strain Asp21, indoor Aspergillus section Nigri
# Method: as §1, §2, §3
# [8] = tested on: Aspergillus section Nigri Asp 32; format: cell-based; details: strain Asp 32, indoor Aspergillus section Nigri
# Method: as §1, §2, §3
# [9] = tested on: Aspergillus calidoustus MH4; format: cell-based; details: strain MH4, indoor Aspergillus calidoustus
# Method: as §1, §2, §3
# [10] = tested on: Penicillium sp. Vaip/skk; format: cell-based; details: strain Vaip/skk, indoor Penicillium sp.
# Method: as §1, §2, §3
# [11] = tested on: Indoor Trichoderma atroviride H1/226; format: cell-based; details: strain H1/226, indoor Trichoderma atroviride
# Method: as §1, §2, §3
# [12] = tested on: Aspergillus section Flavi 1/37; format: cell-based; details: strain 1/37, indoor Aspergillus section Flavi
# Method: as §1, §2, §3
# [13] = tested on: Paecilomyces variotii Pac2/kop; format: cell-based; details: strain Pac2/kop, indoor Paecilomyces variotii
# Method: as §1, §2, §3
# [14] = tested on: Aspergillus versicolor SL/3; format: cell-based; details: strain SL/3, Aspergillus versicolor
# Method: as §1, §2, §3
# [15] = tested on: Penicillium sp. 35/skk; format: cell-based; details: strain 35/skk, indoor Penicillium sp.
# Method: as §1, §2, §3
# [16] = tested on: Paecilomyces variotii Pac1/kop; format: cell-based; details: strain Pac1/kop, indoor Paecilomyces variotii
# Method: as §1, §2, §3
# [17] = tested on: Penicillium sp. 20b/skk; format: cell-based; details: strain 20b/skk, indoor Penicillium sp.
# Method: as §1, §2, §3
# [18] = tested on: Outdoor T. atroviride SZMC 12516; format: cell-based, Trichoderma atroviride; details: strain SZMC 12516, outdoor T. atroviride
# Method: as §1, §2, §3
# [19] = tested on: Outdoor T. atroviride SZMC 12541; format: cell-based, Trichoderma atroviride; details: strain SZMC 12541, outdoor T. atroviride
# Method: as §1, §2, §3
# [20] = tested on: Outdoor T. atroviride SZMC 12323; format: cell-based, Trichoderma atroviride; details: strain SZMC 12323, outdoor T. atroviride
# Method: as §1, §2, §3
# [21] = tested on: Outdoor T. atroviride SZMC 1723; format: cell-based, Trichoderma atroviride; details: strain SZMC 1723, outdoor T. atroviride
# Method: as §1, §2, §3
# [22] = tested on: Outdoor T. atroviride SZMC 207080; format: cell-based, Trichoderma atroviride; details: strain SZMC 207080, outdoor T. atroviride
# Method: as §1, §2, §3
# [23] = tested on: Outdoor T. atroviride SZMC 12474; format: cell-based, Trichoderma atroviride; details: strain SZMC 12474, outdoor T. atroviride
# Method: as §1, §2, §3
# [24] = Trichoderma atroviride, read-out: EC50
compound,measurement,setting,value
"OCCOc1ccccc1 [Phenoxy-ethanol, phenoxyethanol]",EC50,[1]; read-out: EC50,1500 µg/mL
same,EC50,[2]; read-out: EC50,1500 µg/mL
same,EC50,"[3]; SP.5/SKK, read-out: EC50",1500 µg/mL
same,EC50,[4]; read-out: EC50,400 µg/mL
same,EC50,"[5]; FLAVI7D, read-out: EC50",1500 µg/mL
same,EC50,[6]; read-out: EC50,3000 µg/mL
same,EC50,[7]; read-out: EC50,3000 µg/mL
same,EC50,[8]; read-out: EC50,3000 µg/mL
same,EC50,[9]; read-out: EC50,3200 µg/mL
same,EC50,[10]; read-out: EC50,800 µg/mL
same,EC50,[11]; read-out: EC50,1500 µg/mL
same,EC50,"[12]; FLAVI1/37, read-out: EC50",1500 µg/mL
same,EC50,[13]; read-out: EC50,3000 µg/mL
same,EC50,[14]; read-out: EC50,800 µg/mL
same,EC50,"[15]; SP.35/SKK, read-out: EC50",350 µg/mL
same,EC50,[16]; read-out: EC50,3000 µg/mL
same,EC50,"[17]; SP.20B/SKK, read-out: EC50",1500 µg/mL
same,EC50,[18]; [24],1500 µg/mL
same,EC50,[19]; [24],1500 µg/mL
same,EC50,[20]; [24],1500 µg/mL
same,EC50,[21]; [24],1500 µg/mL
same,EC50,[22]; [24],3000 µg/mL
same,EC50,[23]; [24],3000 µg/mL
polyhexamethylene biguanide hydrochloride [PHMB],EC50,[1],60 µg/mL
same,EC50,[2],1 µg/mL
same,EC50,[3],8 µg/mL
same,EC50,[4],60 µg/mL
same,EC50,[5],120 µg/mL
same,EC50,[6],16 µg/mL
same,EC50,[7],30 µg/mL
same,EC50,[8],60 µg/mL
same,EC50,[9],8 µg/mL
same,EC50,[10],8 µg/mL
same,EC50,[11],2 µg/mL
same,EC50,[12],120 µg/mL
same,EC50,[13],30 µg/mL
same,EC50,[14],60 µg/mL
same,EC50,[15],30 µg/mL
same,EC50,[16],30 µg/mL
same,EC50,[17],30 µg/mL
same,EC50,[18],30 µg/mL
same,EC50,[19],2 µg/mL
same,EC50,[20],8 µg/mL
same,EC50,[21],8 µg/mL
same,EC50,[22],8 µg/mL
same,EC50,[23],4 µg/mL
"O=BOB(O)OB(O)OB=O [Borax, sodium tetraborate]",EC50,[1]; read-out: EC50,2500 µg/mL
same,EC50,[2]; read-out: EC50,1200 µg/mL
same,EC50,"[3]; SP.5/SKK, read-out: EC50",2500 µg/mL
same,EC50,[4]; read-out: EC50,5000 µg/mL
same,EC50,"[5]; FLAVI7D, read-out: EC50",2500 µg/mL
same,EC50,[6]; read-out: EC50,≥ 5000 µg/mL
same,EC50,[7]; read-out: EC50,≥ 5000 µg/mL
same,EC50,[8]; read-out: EC50,≥ 5000 µg/mL
same,EC50,[9]; read-out: EC50,5000 µg/mL
same,EC50,[10]; read-out: EC50,> 5000 µg/mL
same,EC50,[11]; read-out: EC50,1200 µg/mL
same,EC50,"[12]; FLAVI1/37, read-out: EC50",5000 µg/mL
same,EC50,[13]; read-out: EC50,≥ 5000 µg/mL
same,EC50,[14]; read-out: EC50,5000 µg/mL
same,EC50,"[15]; SP.35/SKK, read-out: EC50",5000 µg/mL
same,EC50,[16]; read-out: EC50,≥ 5000 µg/mL
same,EC50,"[17]; SP.20B/SKK, read-out: EC50",> 5000 µg/mL
same,EC50,[18]; [24],2500 µg/mL
same,EC50,[19]; [24],1200 µg/mL
same,EC50,[20]; [24],1200 µg/mL
same,EC50,[21]; [24],1200 µg/mL
same,EC50,[22]; [24],1200 µg/mL
same,EC50,[23]; [24],2500 µg/mL
"NCl [Chloramine, chloramine]",EC50,[1],600 µg/mL
same,EC50,[3],600 µg/mL
same,EC50,[5],600 µg/mL
same,EC50,[10],600 µg/mL
same,EC50,[12],600 µg/mL
same,EC50,[14],600 µg/mL
same,EC50,[15],600 µg/mL
same,EC50,[17],600 µg/mL
same,EC50,[18],2500 µg/mL
same,EC50,[19],2500 µg/mL
same,EC50,[20],2500 µg/mL
same,EC50,[21],2500 µg/mL
same,EC50,[22],2500 µg/mL
same,EC50,[23],2500 µg/mL
"Oc1cc(Cl)ccc1Oc1ccc(Cl)cc1Cl [Triclosan, 5-Chloro-2-(2,4-dichlorophenoxy)phenol]",EC50,[1]; read-out: EC50,16 µg/mL
same,EC50,[2]; read-out: EC50,16 µg/mL
same,EC50,"[3]; SP.5/SKK, read-out: EC50",2 µg/mL
same,EC50,[4]; read-out: EC50,16 µg/mL
same,EC50,"[5]; FLAVI7D, read-out: EC50",8 µg/mL
same,EC50,[6]; read-out: EC50,4 µg/mL
same,EC50,[7]; read-out: EC50,30 µg/mL
same,EC50,[8]; read-out: EC50,16 µg/mL
same,EC50,[9]; read-out: EC50,16 µg/mL
same,EC50,[10]; read-out: EC50,4 µg/mL
same,EC50,[11]; read-out: EC50,16 µg/mL
same,EC50,"[12]; FLAVI1/37, read-out: EC50",8 µg/mL
same,EC50,[13]; read-out: EC50,4 µg/mL
same,EC50,[14]; read-out: EC50,16 µg/mL
same,EC50,[16]; read-out: EC50,4 µg/mL
same,EC50,"[17]; SP.20B/SKK, read-out: EC50",2 µg/mL
same,EC50,[18]; [24],16 µg/mL
same,EC50,[19]; [24],16 µg/mL
same,EC50,[20]; [24],30 µg/mL
same,EC50,[21]; [24],16 µg/mL
same,EC50,[22]; [24],8 µg/mL
same,EC50,[23]; [24],8 µg/mL
